The target of series [1] is T1, wild type AXL (wtAXL) receptor tyrosine kinase (Homo sapiens, UniProt P30530).
T1 construct: WtAXL cDNA was cloned into vector pLXSN(ESK) and transfected into Phoenix E packaging cells; expressed in transfected cells; host or cells: NIH3T3 N7 mouse fibroblasts, retrovirally infected (clone 22)
T1 sequence (P30530 26-894): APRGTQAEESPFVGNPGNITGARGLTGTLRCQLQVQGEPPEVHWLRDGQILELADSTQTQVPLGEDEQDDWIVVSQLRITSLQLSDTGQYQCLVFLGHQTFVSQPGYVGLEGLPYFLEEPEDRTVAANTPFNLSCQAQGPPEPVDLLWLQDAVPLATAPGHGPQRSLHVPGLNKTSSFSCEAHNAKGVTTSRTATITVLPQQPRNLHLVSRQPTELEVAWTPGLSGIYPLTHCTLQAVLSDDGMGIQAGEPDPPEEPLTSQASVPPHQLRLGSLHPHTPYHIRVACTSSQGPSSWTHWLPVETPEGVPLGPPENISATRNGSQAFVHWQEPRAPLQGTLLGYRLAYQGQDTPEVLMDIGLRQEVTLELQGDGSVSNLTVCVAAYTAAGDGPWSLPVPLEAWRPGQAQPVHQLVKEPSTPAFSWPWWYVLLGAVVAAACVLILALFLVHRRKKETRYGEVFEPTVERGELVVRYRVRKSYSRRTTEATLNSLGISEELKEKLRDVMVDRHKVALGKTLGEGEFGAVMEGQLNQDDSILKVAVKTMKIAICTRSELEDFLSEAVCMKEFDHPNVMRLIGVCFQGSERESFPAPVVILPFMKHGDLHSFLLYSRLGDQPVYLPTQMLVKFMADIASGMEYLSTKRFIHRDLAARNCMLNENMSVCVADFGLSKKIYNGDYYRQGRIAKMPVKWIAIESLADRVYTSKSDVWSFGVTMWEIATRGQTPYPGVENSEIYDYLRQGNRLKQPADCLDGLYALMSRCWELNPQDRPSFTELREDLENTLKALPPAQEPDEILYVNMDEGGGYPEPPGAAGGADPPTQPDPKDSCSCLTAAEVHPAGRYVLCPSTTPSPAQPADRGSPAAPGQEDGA
The series can be described thus: NIH-3T3-AXL cellular tyrosine kinase assay (inhibition of AXL phosphorylation). The format is cell-based. The conditions noted are these: AXL phosphorylation in NIH-3T3-AXL (clone 22) cells, serum-depleted, 2 h with compound, immunoprecipitation / anti-phosphotyrosine blot. In outline: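 NIH3T3 clones stably expressing human wtAXL (puromycin-selected) were exposed to serially diluted compounds for 2 h. AXL was immunoprecipitated from lysates with anti-AXL antibody, and phosphorylation detected by anti-phosphotyrosine (4G10) western blot with ECL.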

pIC50: −log10 of the molar value.

With `COc1cc2c(Oc3ccc(NS(=O)(=O)c4ccc(Cl)cc4F)cc3F)ccnc2cc1OCCN1CCOCC1` [Example D12, 4-Chloro-2-fluoro-N-{3-fluoro-4-[6-methoxy-7-(2-morpholin-4-yl-ethoxy)-quinolin-4-yloxy]-phenyl}-benzenesulfonamide], the melting point is 212 to 214 °C. The pIC50 in series [1] was 6.52.

As for `COc1cc(S(=O)(=O)Nc2ccc(Oc3ccnc4cc(OC)c(OC)cc34)c(F)c2)ccc1F` [Example A109, N-[4-(6,7-Dimethoxy-quinolin-4-yloxy)-3-fluoro-phenyl]-4-fluoro-3-methoxy-benzenesulfonamide], the melting point was in the range of 202 to 204 °C. In addition, the negative-log IC50 (pIC50) in series [1] is < 6.00.

`COc1cc2nccc(Oc3ccc(NS(=O)(=O)c4ccccc4OC(F)(F)F)cc3OC)c2cc1OC` [Example A119, N-[4-(6,7-Dimethoxy-quinolin-4-yloxy)-3-methoxy-phenyl]-2-trifluoromethoxy-benzenesulfonamide] gave a melting point of 211 to 212 °C. In addition, the negative logarithm of the IC50 (pIC50) in series [1] was < 5.52.

For the compound `COc1cc2c(Oc3ccc(NS(=O)(=O)c4cccc(-c5ccccc5)c4)c(F)c3)ccnc2cc1OCc1ccccc1` [Example D01, Biphenyl-3-sulfonic acid [4-(7-benzyloxy-6-methoxy-quinolin-4-yloxy)-2-fluoro-phenyl]-amide], the melting point was 228 to 229 °C. Besides, the pIC50 in series [1] is < 5.00.

`COc1cc(S(=O)(=O)Nc2ccc(Oc3ccnc4cc(OC)c(OC)cc34)cc2C)ccc1F` [Example A154, N-[4-(6,7-Dimethoxy-quinolin-4-yloxy)-2-methyl-phenyl]-4-fluoro-3-methoxy-benzenesulfonamide] came in with a melting point of 228 to 229 °C. The pIC50 in series [1] was < 5.00.

With `COc1cc2nccc(Oc3ccc(NS(=O)(=O)c4cc(Cl)cc(Cl)c4O)c(F)c3)c2cc1OC` [Example A5, 3,5-Dichloro-N-[4-(6,7-dimethoxy-quinolin-4-yloxy)-2-fluoro-phenyl]-2-hydroxy-benzenesulfonamide], the melting point is 232 to 234 °C. Also, the negative-log IC50 (pIC50) in series [1] is 6.30.

In turn, `COc1cc2nccc(Oc3ccc(NS(=O)(=O)c4cccc(-c5ncccn5)c4)cc3)c2cc1OC` [Example A82, N-[4-(6,7-Dimethoxy-quinolin-4-yloxy)-phenyl]-3-pyrimidin-2-yl-benzenesulfonamide] returned a melting point of 194 to 195 °C. Besides, the negative logarithm of the IC50 (pIC50) in series [1] is < 6.00.

Compound `Cc1cc(Oc2ccc(NS(=O)(=O)c3cc(Cl)cc(Cl)c3O)cc2)c2cc(F)ccc2n1` [Example B22, 3,5-Dichloro-N-[4-(6-fluoro-2-methyl-quinolin-4-yloxy)-phenyl]-2-hydroxy-benzenesulfonamide] had a melting point of 203 to 205 °C. The pIC50 in series [1] was 5.15.

Compound `COc1cc2c(Oc3ccc(NS(=O)(=O)c4c(F)cccc4F)cc3F)ccnc2cc1OCCCN1CCC(C)CC1` [Example D20, 2,6-Difluoro-N-(3-fluoro-4-{6-methoxy-7-[3-(4-methyl-piperidin-1-yl)-propoxy]-quinolin-4-yloxy}-phenyl)-benzenesulfonamide] gave a melting point of 200 to 203 °C. Further, the negative-log IC50 (pIC50) in series [1] is 7.54.

`COc1cc2nccc(Oc3ccc(NS(=O)(=O)c4ccc(-c5ccccc5)cc4)c(C)c3)c2cc1OC` [Example A92, Biphenyl-4-sulfonic acid [4-(6,7-dimethoxy-quinolin-4-yloxy)-2-methyl-phenyl]-amide] had a melting point of 228 to 230 °C. In series [1], the negative logarithm of the IC50 (pIC50) was < 5.00.

The compound `COc1cc2nccc(Oc3ccc(NS(=O)(=O)c4cc(F)ccc4F)cc3C)c2cc1OC` [Example A131, N-[4-(6,7-Dimethoxy-quinolin-4-yloxy)-3-methyl-phenyl]-2,5-difluoro-benzenesulfonamide] registered a melting point of 239 to 240 °C. The pIC50 in series [1] was 5.77.

`COC(=O)c1sccc1S(=O)(=O)Nc1ccc(Oc2cc(C)nc3ccc(F)cc23)cc1` [Example B17, 3-[4-(6-Fluoro-2-methyl-quinolin-4-yloxy)-phenylsulfamoyl]-thiophene-2-carboxylic acid methyl ester]: the melting point is 160 to 161 °C. In addition, the pIC50 in series [1] was < 5.00.

For `COc1cc2nccc(Oc3ccc(NS(=O)(=O)c4cc(Cl)c(C)cc4OC)cc3)c2cc1OC` [Example A69, 5-Chloro-N-[4-(6,7-dimethoxy-quinolin-4-yloxy)-phenyl]-2-methoxy-4-methyl-benzenesulfonamide], the melting point was 236 to 238 °C. Moreover, the negative-log IC50 (pIC50) in series [1] was < 5.00.

Turning to `COc1cc2nccc(Oc3ccc(NS(=O)(=O)c4cccc5ccccc45)cc3OC)c2cc1OC` [Example A140, Naphthalene-1-sulfonic acid [4-(6,7-dimethoxy-quinolin-4-yloxy)-3-methoxy-phenyl]-amide], the melting point lay within 124 to 126 °C. Moreover, the pIC50 in series [1] was < 5.00.

As for `Cc1cc(Oc2ccc(NS(=O)(=O)c3cc4ccccc4s3)c(F)c2)c2cccc(C(F)(F)F)c2n1` [Example C17, Benzo[b]thiophene-2-sulfonic acid [2-fluoro-4-(2-methyl-8-trifluoromethyl-quinolin-4-yloxy)-phenyl]-amide], the melting point is 182 to 184 °C. Besides, the pIC50 in series [1] is < 5.00.

As to `CCn1cc(S(=O)(=O)Nc2ccc(Oc3cc(C)nc4ccc(F)cc34)cc2)cn1` [Example B21, 1-Ethyl-1H-pyrazole-4-sulfonic acid [4-(6-fluoro-2-methyl-quinolin-4-yloxy)-phenyl]-amide], the melting point fell in the range of 165 to 167 °C. The pIC50 in series [1] is < 5.00.

The compound `Cc1cc(Oc2ccc(NS(=O)(=O)c3cccc(Br)c3)cc2)c2cc(F)ccc2n1` [Example B14, 3-Bromo-N-[4-(6-fluoro-2-methyl-quinolin-4-yloxy)-phenyl]-benzenesulfonamide] gave a melting point of 183 to 184 °C. Moreover, in series [1], the pIC50 is > 6.00.

Compound `COc1cc2nccc(Oc3ccc(NS(=O)(=O)c4cccc(-c5ncccn5)c4)cc3C)c2cc1OC` [Example A132, N-[4-(6,7-Dimethoxy-quinolin-4-yloxy)-3-methyl-phenyl]-3-pyrimidin-2-yl-benzenesulfonamide] had a melting point of 188 to 190 °C. Moreover, the pIC50 in series [1] is < 5.00.

In turn, `Cc1cc(Oc2ccc(NS(=O)(=O)c3cccc(-c4ccccc4)c3)c(F)c2)c2cccc(C(F)(F)F)c2n1` [Example C02, Biphenyl-3-sulfonic acid [2-fluoro-4-(2-methyl-8-trifluoromethyl-quinolin-4-yloxy)-phenyl]-amide] gave a melting point of 187 to 188 °C. In series [1], the negative-log IC50 (pIC50) was < 5.00.

The compound `COc1cc2nccc(Oc3ccc(NS(=O)(=O)c4ccc(Br)c(F)c4)c(F)c3)c2cc1OC` [Example A11, 4-Bromo-N-[4-(6,7-dimethoxy-quinolin-4-yloxy)-2-fluoro-phenyl]-3-fluoro-benzenesulfonamide] displayed a melting point of 209 to 211 °C. Besides, the negative-log IC50 (pIC50) in series [1] was 5.65.

`COc1cc2nccc(Oc3ccc(NS(=O)(=O)c4cc5ccccc5s4)cc3)c2cc1OC` [Example A83, Benzo[b]thiophene-2-sulfonic acid [4-(6,7-dimethoxy-quinolin-4-yloxy)-phenyl]-amide] showed a melting point of 222 to 225 °C. Further, in series [1], the negative logarithm of the IC50 (pIC50) was < 5.52.

`Cc1cc(Oc2ccc(NS(=O)(=O)C3CC3)c(F)c2)c2cc(F)ccc2n1` [Example B4, Cyclopropanesulfonic acid [2-fluoro-4-(6-fluoro-2-methyl-quinolin-4-yloxy)-phenyl]-amide] showed a melting point of 189 to 190 °C. In series [1], the pIC50 is < 5.00.

`COc1cc2nccc(Oc3ccc(NS(=O)(=O)c4ccccc4F)c(F)c3)c2cc1OC` [Example A59, N-[4-(6,7-Dimethoxy-quinolin-4-yloxy)-2-fluoro-phenyl]-2-fluoro-benzenesulfonamide]: the melting point lay within 235 to 236 °C. In addition, the pIC50 in series [1] was < 6.00.

The compound `COc1cc2nccc(Oc3ccc(NS(=O)(=O)c4cc(Cl)sc4Cl)c(F)c3)c2cc1OC` [Example A18, 2,5-Dichloro-thiophene-3-sulfonic acid [4-(6,7-dimethoxy-quinolin-4-yloxy)-2-fluoro-phenyl]-amide] showed a melting point of 223 to 225 °C. Further, the pIC50 in series [1] is 5.68.

For the origin of these results see patent publication US9206130B2, “Quinoline derivatives as AXL kinase inhibitors” (Max-Planck-Gesellschaft zur Förderung der Wissenschaften …, priority 2008, dated 2015).
